Values of other authors in patent US20230149600A1, “COLLAGEN-BASED DEVICE HAVING ANTIFUNGAL PROPERTIES” (AROA BIOSURGERY LIMITED, priority 2016, published 2023).

What was measured:
[1] = system: fungal spores of the genera Aspergillus, Penicillium and Curvularia; conditions: called "moderate" activity
C. albicans biofilms = conditions: doxycycline concentrations >0.512 mg/mL; not correlated with fungicidal efficacy
Candida albicans = conditions: 5% (50 mg/mL) doxycycline solution
C. albicans = conditions: 20 strains of C. albicans

## Doxycycline
[1]
  inhibition of fungal spore germination: 50-70%
C. albicans biofilms
  reduction in metabolic activity of C. albicans biofilms: ≥ 80%
Candida albicans
  antifungal effect relative to other solutions: more active than a 17% EDTA solution but less active than a 2.5% NaOCl solution or a 0.2% chlorhexidine gluconate solution
C. albicans
  MIC range: 640 to 1280 µg/mL
